Reference: patent US11224223B2, “Feeding deterrence of pests such as Hemiptera, Lepidoptera and Coleoptera” (BEDOUKIAN RESEARCH, INC., priority 2012, dated 2022)

Key:
Assay type in all cases: in vivo
Codling Moth larvae = assay: Repellency as feeding deterrence and mortality in Codling Moth larvae on treated media; details: compound at 3.5% in a 57% Ethanol:43% water solution; for Repellency at 24 hours: first instar larva, control 8%
Procedure: Another test was designed to measure the repellency as feeding deterrence in Codling Moth larvae. The treatment was applied to the surface of a proprietary laboratory media in a tray with wells for each compound. The media was allowed to dry for 30-60 minutes so that larvae were not exposed to it as a liquid. One first instar codling moth larva was then placed on the treated media. The cover film was placed on the tray to prevent escapes. Ten additional replicates treated with a 57% ethanol solution were prepared to serve as controls. […] After the 24 hour reading, the larvae were extracted from the media to record any mortality.
Mortality observations were also made for the above protocol. The control was the 57% ethanol:43% water solution.

Aphis gossypii = assay: Melon aphid repellency on leaf choice assays; details: 3% compound in a Triton X:Water solution; n=100; control 50/50
Source text: Melon Aphid Repellency on Leaf Choice Assays Aphis gossypii are maintained on squash plants. Individual aphids (n=100) are given the choice between leaves with and without repellent treatments. A separate group of aphids are given a choice between untreated vs. untreated leaves as a control. The number of aphids choosing each leaf is counted both choice tests. The number of aphids choosing each treatment is compared to the control to determine the repellent effect.

psyllids = assay: Psyllid repellency on potato choice assays; details: 3% compound; potato plants; 100 psyllids per cage; control 50/50
Source text: Psyllid Repellency on Potato Choice Assays
(§1) Potato plants are sprayed with either a 3% solution of repellent chemical in a 5%:95% ETOH:Water or only 5%:95% ETOH:Water as a control. Two plants are placed in a screen cage, either a treatment vs control tree or a control vs control tree, 100 psyllids are released into each cage. The number of psyllids choosing each leaf is counted for both choice tests. The number of psyllids choosing each treatment is compared to the control to determine if there is a repellent effect.

sharpshooters = assay: Leafhopper repellency on citrus choice assays; details: 3% compound; citrus seedlings; 100 sharpshooters per cage; control 50/50
Source text: as §1, with “Leafhopper Repellency on Citrus Choice Assays Citrus seedlings” for “Potato plants”, “seedlings” for “plants”, “tree.” for “tree,”, “sharpshooters” for “psyllids”

[1] = system: Euschistus heros-Neotropical Brown Stink Bugs; assay: Stink bug feeding damage on soybean pods; details: 3% compound, soybean plants at R6 stage, 48 hours
Procedure: To compare the feeding/resting preference of stink bug adults for different plant parts, 10 pots with soybean plants at the R6 (pod-filling) stage of development are used. 5 pots of soybeans are sprayed with 3% of treatment in a 2% Triton X:water solution and 5 pots of soybean are treated with 2% Triton X:water solution as controls. Thirty stink bugs are placed individually in each cage and allowed to feed for 48 hours. Insects are removed and plant parts are collected for visual analysis of damage. Feeding damage on the pods is counted for both treatments. The selective antifeeding rate (%) formula is [(C−T)/(C+T)]×100, and the non-selective antifeeding rate (%) formula is [(C−T)/C)]×100, where C and T are the numbers of feeding damages on the control and treated plant pods, respectively.

[2] = system: Leptinotarsa decemlineata-Colorado Potatoe Beetles; assay: Choice feeding assay on potato leaf disks; details: 3% compound, larvae, 24 h
Procedure: For choice feeding assays, 3% alcohol solutions of the tested compounds are prepared. Disks (4.0 cm in diameter) are cut from potato leaves and are dipped in the test solutions or alcohol alone as a control. After the complete evaporation of the solvent, the disks are offered to 10 larvae. Control and treated disks are placed at alternate corners in Petri dishes (150 by 20 mm) lined with moistened filter paper (choice test). All dishes are placed in an incubator. Four replicates and 40 larva are used for each chemical. In each replicate, the insects are allowed to feed ad libitum for 24 h at 24 C under a 16:8 (L:D) photoperiod. After 24 h, the remaining uneaten area of each potato leaf disk is measured using a scanner and software. The selective antifeeding rate (%) formula is [(C−T)/(C+T)]×100, and the non-selective antifeeding rate (%) formula is [(C−T)/C)]×100, where C and T are the areas consumed by the control and treated leaf disks, respectively.

saw tooth grain beetles = assay: Repellency of test compounds on grain beetles, treated corn kernels; details: 5% in isopropyl alcohol, 3 week period
Procedure: Ten replicates of 30 kernels of corn are immersed into the test compound and allowed to dry for 24 hours. The kernels are then transferred to a test container, and 10 saw tooth grain beetles are released. Test containers are secured and left for a 3 week period. At the end of this time, the […] grains are examined for feeding damage. […] Ten additional replicates treated with isopropyl alcohol are prepared to serve as controls.

Tineola spp. = assay: Clothes moth feeding damage on silk fabric, choice test; details: 3% compound; silk disks; late instar larvae; 24 hours; control 50/50
Procedure: For feeding assays, 3% alcohol solutions of the tested compounds are prepared. Disks (2.0 cm in diameter) of undyed silk fabric are dipped in the test solutions or alcohol alone as a control. After the complete evaporation of the solvent, the disks are presented in a choice test to 10 late instar Tineola spp. larvae. All dishes are placed in an incubator in the dark. Four replicates are used for each chemical. After 24 hours, the number of individuals choosing to feed on each disk are counted.

Sitostroga cerealella = assay: Feeding repellent assay for Angoumois larva on treated rice; details: 10% compound in a 5% Ethanol:95% water solution, third instar larvae, 1 week
Procedure: Feeding Repellent Assay for Angoumois Larva
One gram of rice is weighed and treated with 2% by weight of each test chemical or ethanol as a control for each treatment and replicate. The grains are allowed to dry and then weighed again. Treated or control rice grains are placed in a petri dish. Third instar larvae are starved for 8 h and gently introduced into the center of each compartment. 20 larva are screened per treatment, and each experiment is repeated three times. The weight of rice grains is measured again after 1 week. The selective antifeeding rate (%) formula is [(C−T)/(C+T)]×100, and the non-selective antifeeding rate (%) formula is [(C−T)/C)]×100, where C and T are the areas consumed by the control and treated leaf disks, respectively.

SMILES	Increased Mortality over Control Mortality at 24 hours (Codling Moth larvae) [%]	Repellency at 24 hours (Codling Moth larvae) [%]	Number of Aphids Choosing each Treatment: Treated (Aphis gossypii)	Number of Aphids Choosing each Treatment: Untreated (Aphis gossypii)	Number of Psyllids Choosing each Treatment: Treated (psyllids)	Number of Psyllids Choosing each Treatment: Untreated (psyllids)	Number of Psyllids Choosing each Treatment: Treated (sharpshooters)	Number of Psyllids Choosing each Treatment: Untreated (sharpshooters)	% Antifeedent Activity [1] [%]	% Repellency [2] [%]	Increased Repellency vs. Control Repellency (saw tooth grain beetles) [%]	Individuals choosing to feed on each disk: Treated (Tineola spp.)	Individuals choosing to feed on each disk: Untreated (Tineola spp.)	% Antifeedent Activity (Sitostroga cerealella) [%]
CC/C(C)=C/CC/C(C)=C/CC1CCCC1=O (stereo not shown) [Methyl Apritone]	95	100	30	70	30	70	30	70	60	15	10	20	80	70
CCCCCC1C(=O)CCC1CC(=O)OCCC (stereo not shown) [Propyl Dihydrojasmonate]	18	59	30	70	30	70	30	70	100	15	10	20	80	60
